Assay results: patent EP0326134A1, “4-Amino-2,3-disubstituted-6,7-dihydro-5H-1-pyridine derivatives, process for their preparation and medicaments containing them” (NAUCHNO-ISSLEDOVATELSKY INSTITUT TEKHNOLOGII I BEZOPASNOSTI …, priority 1988, dated 1989)

Tests used:
[1] = Acute toxicity, single intraperitoneal injection, probit analysis (LD50); format: in vivo, Mäusen; conditions: mice, i.p.
Text: Ihre akute Toxizität wurde an Mäusen (einmalige intraperitoneale Injektion) nach der Methode der Probit-Analyse nach Zichtfield, Wilcoxon, t949 untersucht. In Tabelle 2 sind die Parameter der akuten Toxizität (LDso) angegeben, die eine mäßige Toxizität der erfindungsgemäßen Verbindungen belegen.

[2] = test system: Wirkung von Hexenal; assay: Influence on the effect of Hexenal; format: in vivo, Mäusen; conditions: mice
[3] = test system: Zahl der Krämpfe; assay: Writhing test (intraperitoneal acetic acid); format: in vivo, Mäusen; conditions: male mice
Text: Die analgetische Wirkung der erfindungsgemäßen Verbindungen wurde an männlichen Mäusen anhand des "Krampf"-Tests (Writhing-Tests) unter intraperitonealer Injizierung von Essigsäure und des Hot-plate-Tests untersucht. Im ersten Falle wurde die analgetische Wirkung der Verbindungen anhand der prozentualen Verringerung der Zahl der Krämpfe ermittelt. Beim zweiten Test wurde die Schwelle der Schmerzempfindlichkeit (Ablecken der Pfoten) bestimmt. Die stärkste analgetische Wirkung der erfindungsgemäßen Verbindungen zeigte sich beim "Krampf"-Test. Dabei übertrafen die Salze der bicyclischen Basen Amyridin, aber nicht alle erfindungsgemäßen Verbindungen waren schwächer als Morphin (s. Tabelle 4).

[4] = test system: isolierten Präparaten des rechten Vorhofs von Kaninchen; assay: Antiarrhythmic effect on isolated right atrium preparations (microelectrodes: AP duration, refractory period R, e/R); conditions: isolated right atrium of rabbit, microelectrodes
Text: (§1) Die antiarrhythmische Wirkung der erfindungsgemäßen Verbindungen wurde in zwei Versuchsserien untersucht, und zwar an isolierten Präparaten des rechten Vorhofs von Kaninchen und mit Hilfe des Calciumchlorid-Arrhythmie-Modells an Ratten. In den Versuchen an den isolierten Präparaten des rechten Vorhofs wurden mit Hilfe von Mikroelektroden die Dauer des AP sowie der Refraktärzeit (R) und die maximale Hemmung (e) und der Parameter (e/R) untersucht, durch den die Anfälligkeit des Myokards gegenüber der Entstehung von Arrhythmien gekennzeichnet wird. In den Versuchen an Ratten wurden diesen Calciumchlorid in einer Dosierung von 250 mg/kg injiziert. Registriert wurden das Vorliegen von Kammerflimmern und die Lebensdauer der Tiere. Sämtliche erfindungsgemäßen Verbindungen üben eine mäßige antiarrhythmische Wirkung aus. Sie steigern die Refraktärzeit des Muskels und des AP um 35 bis 145 % und verringern gleichzeitig die Anfälligkeit des Myokards, ausgedrückt durch den Parameter e/R um 10 bis 80 % (s. Tabelle 4). In bezug auf diese Wirkung waren die Salze der bicyclischen Basen wirksamer als Amyridin. Bezüglich des Vermögens, die Tiere vor Kammerflimmern und vor dem Tod nach Verabreichung von 250 mg/kg Calciumchlorid zu schützen, waren diese Verbindungen ebenfalls am stärksten wirksam. Bei Verwendung des Calciumchlorid-Arrhythmie-Modells waren viele erfindungsgemäßen Verbindungen stärker wirksam als das klassische Antiarrhythmikum Chinidin (s. M.D. Ma s kovskij, Lekarstvennye sredstva, Bd. 1, S. 401, Moskau, Medicina, 1984).

[5] = target: T1, Acetylcholinesterase menschlicher Erythrozyten (Homo sapiens, UniProt P22303); assay: Acetylcholinesterase inhibition, spectrophotometric; format: biochemical; conditions: Acetylcholinesteraseinhibierung bei menschlichen Erythrozyten IK, (Mol), human erythrocyte enzyme
T1 construct: Acetylcholin-esteraseinhi-bierung bei menschlichen Erythrozyten; from tissue; host or cells: human erythrocytes
Text: Untersucht wurden die Wirkmechanismen der erfindungsgemäßen Verbindungen: • 1. Die Wirkung auf Acetylcholinesterase menschlicher Erythrozyten auf spektrofotometrischem Wege. • 2.

[6] = test system: Orientierungsaktivität; assay: Influence on orientation activity; format: in vivo, Mäusen; conditions: mice
Text: Von Interesse ist der Einfluß der erfindungsgemäßen Verbindungen auf das ZNS und das Verhalten der Tiere. Alle Verbindungen zeigen eine Kombination von stimulierenden und sedativen Eigenschaften und bei höheren Dosen auch eine m-cholinomimetische Wirkung, wobei Tremor, Speichelfluß und Diarrhoe ausgelöst werden.

[7] = test system: Nerven-Muskel-Präparat von Mäusen (n.peroneus-m.extensor digitorum longus); assay: Neuromuscular transmission in isolated nerve-muscle preparation (EPP, minEPP); conditions: for Stimulierung der Nerven-Muskelübertragung, in % der Amplitude: EPP: EPP = Endplattenpotential
Text: Der Einfluß der Stoffe auf die Nerven-Muskei-Übertragung wurde am isolierten Nerven-Muskel-Präparat von Mäusen (n.peroneus-m.extensor digitorum longus) (s. Bhattacharyya B. et al. "Neuromuscular blocking action of two hemicholinium-3 analogs" Europ. J. Pharmac. 146, 155-165 /1988/) untersucht, das von Lilly-Lösung perfundiert wurde, durch die man ein Gemisch von 02 und C02 leitete. […] Das Endplattenpotential (EPP) und das Endplattenminiaturpotential (minEPP) wurden mit Hilfe eines Magnetografen aufgezeichnet und danach mit dem Computer ausgewertet. Ermittelt wurden die Frequenz (f), die Amplitude (A) und die Dauer (t) der minEPP und der EPP (s. Tabelle 2).

[8] = test system: Calciumchlorid-Arrhythmie-Modells; assay: Calcium chloride arrhythmia model (250 mg/kg): ventricular fibrillation, survival; format: in vivo, Ratten; conditions: rats, calcium chloride 250 mg/kg
Text: as §1

[9] = Side effects and CNS/behaviour: tremor (TD50), sedative and m-cholinomimetic effects; format: in vivo; conditions: for Verhältnis TD50 zu ED50: ED50 = dose blocking the effect of Skopolamin in 50 % of the animals (passive avoidance, mice)
Text: Von Interesse ist der Einfluß der erfindungsgemäßen Verbindungen auf das ZNS und das Verhalten der Tiere.

[10] = test system: Samenleiter der Ratte; assay: Contractile activity of smooth muscle: rat vas deferens; conditions: Rattus norvegicus, read-out: Adrenalin 1.10^-6: Amplitude, % bezogen auf d.Kontrolle, Samenleiter der Ratte; Konzentration 1.10^-4 Mol; n = 9
Text: (§2) In Versuchen an glattmpskulären Organen (Uterus, Samenleiter der Ratte und Krummdarm des Meerschweinchens) wurden die Wirkung der erfindungsgemäßen Verbindungen auf die kontraktile Aktivität der glatten Muskeln und ihre Reaktionen auf den Einfluß von Acetylcholin, Serotonin, Adrenalin und KCI als Agonisten untersucht. Mit Hilfe eines Schreibers wurden die Amplitude und die Dauer der Kontraktion der glatten Muskeln unter Verwendung eines Geräts vom Typ Mechanstron-untersucht.

[11] = test system: Uterus der Ratte; assay: Contractile activity of smooth muscle: rat uterus; conditions: Rattus norvegicus, read-out: Serotonin 1.10^-6 (Mol): Amplitude, % bezogen auf die Kontrolle, Uterus der Ratte; Konzentration 1.10^-4 Mol; n = 9
Text: as §2

[12] = test system: durch Skopolamin hervorgerufene Amnesie; assay: Dark avoidance assay (passive avoidance), scopolamine-induced amnesia; format: in vivo, Mäusen; conditions: mice, compound s.c. 5 min before learning, Skopolamin i.p. 30 min before
Experimental: Die Mäuse wurden dabei in den hellen Abschnitt der Kammer gegeben, wonach die Latenzzeit für den Übertritt in die dunkle Kammer, in der die Tiere einem Stromschlag von 0,5 mA ausgesetzt waren, registriert wurde. Danach erhöhte sich die Latenzzeit für den Übertritt in den dunklen Abschnitt und verringerte sich die Aufenthaltsdauer. 30 Minuten vor dem Versuch wurden den Mäusen i.p. […] Gedächtnisstörungen hervorrufendes Skopolamin als Cholinblocker injiziert. Die erfindungsgemäßen Verbindungen wurden s.c. 5 Minuten vor dem Lernvorgang injiziert. Das Skopolamin verkürzt die Latenzzeit für den Übertritt in die dunkle Kammer, die erfindungsgemäßen Verbindungen stellen jedoch die Latenzzeitwerte wie bei der Kontrollgruppe wieder her oder bedingen ein geringfügiges Überschreiten dieser Werte (siehe Tabelle 2). Gleichzeitig wird die Aufenthaltsdauer der Tiere im dunklen Abschnitt der Kammer auf 36 bis 45 Hundertstel des Ausgangswerts verringert.

[13] = toxic dose causing tremor in 50 % of the animals

T1 sequence (P22303 other isoform, or with tags, fused parts or gaps): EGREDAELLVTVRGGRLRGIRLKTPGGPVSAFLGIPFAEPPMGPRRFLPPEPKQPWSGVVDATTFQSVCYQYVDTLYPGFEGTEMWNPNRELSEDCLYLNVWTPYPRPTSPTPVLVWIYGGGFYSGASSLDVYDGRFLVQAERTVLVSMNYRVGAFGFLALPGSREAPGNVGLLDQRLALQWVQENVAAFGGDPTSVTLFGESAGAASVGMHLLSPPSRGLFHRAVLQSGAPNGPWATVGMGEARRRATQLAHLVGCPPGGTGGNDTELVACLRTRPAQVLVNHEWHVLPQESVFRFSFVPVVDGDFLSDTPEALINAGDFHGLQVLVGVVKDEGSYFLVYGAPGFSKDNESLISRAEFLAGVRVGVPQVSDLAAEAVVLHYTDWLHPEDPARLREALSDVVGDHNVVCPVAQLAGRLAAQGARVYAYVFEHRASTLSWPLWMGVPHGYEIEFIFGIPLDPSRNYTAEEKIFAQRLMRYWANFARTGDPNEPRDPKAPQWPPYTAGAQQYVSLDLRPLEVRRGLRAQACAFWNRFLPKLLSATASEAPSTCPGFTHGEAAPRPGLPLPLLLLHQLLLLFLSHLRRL

Structure (SMILES)	LD50 [1] [mg/kg]	Änderung der Dauer der Seitenlage, in %: Hexenal 60 mg/kg [2]	Analgetische Wirkung: Abnahme d. Zahl der "Krämpfe" bei Mäusen, in % [3] [%]	Antiarrhythmische Wirkung: Verlängerung d. Refraktärzeit (R), in % [4] [%]	Ki [5] [nM]	Änderung der Orientierungsaktivität, in % [6] [%]	Stimulierung der Nerven-Muskelübertragung, in % der Amplitude: EPP [7] [%]	Stimulierung der Nerven-Muskelübertragung, in % der Amplitude: minEPP [7] [%]	Antiarrhythmische Wirkung: Verlängerung d. Lebensdauer von Ratten an Hand des CaCl2-Arrhythmie-Modells, in % [8] [%]	Verhältnis TD50 zu ED50 [9]	TD50 (Tremor) [9, 13] [mg/kg]	activity at 100 µM [10] [%]	activity at 100 µM [11] [%]	Einfluß auf das Gedächtnis: Zahl der Tiere in %, bei denen die Skopolaminwirkung aufgehoben wurde [12] [%]	TD50 ([9]; in vivo, toxic dose causing tremor in 50 % of the animals) [mg/kg]
Cc1nc2c(c(N)c1C)CCC2 [Verbindung 10]	15	0%	60	120	123	0	38	79	180	7,5	6	160	160	80	–
Cc1nc2c(c(N)c1C)CCC2 [Verbindung 15]	16	+30%	65	90	650	-15	40	75	110	6,8	7	–	–	72	–
Cc1nc2c(c(N)c1C)CCC2 [Verbindung 3]	17	0%	90	115	180	-8	55	110	190	20	7	–	–	80	–
Cc1nc2c(c(N)c1C)CCC2 [Verbindung 6]	35	+20%	70	100	400	-20	35	80	130	10	–	–	–	60	10
Cc1nc2c(c(N)c1C)CCC2 [Verbindung 2]	15	+35%	70	130	48	-15	45	85	160	12,5	5	–	–	75	–
Cc1nc2c(c(N)c1C)CCC2 [Verbindung 9]	15	+30%	70	110	251	-20	40	80	140	7	7	–	–	70	–
Cc1nc2c(c(N)c1C)CCC2 [Verbindung 5]	25	0%	90	110	660	-10	40	90	130	13	9	–	–	60	–
